Measured values from patent US20110086834A1, “ALKYNYL ALCOHOLS AS KINASE INHIBITORS” (AMGEN INC., priority 2008, published 2011).
pKi: −log10 of the molar value.

These compounds were tested against T1, NIK (Homo sapiens, UniProt Q99558) (assay: homogenous time resolved fluorescence (HTRF) assay for NIK Ki measurement). Conditions: truncated NIK (catalytic domain only), autophosphorylation; 10 nM enzyme; 20, 100, 200 or 500 μM ATP; room temperature, 2 hours; read-out: Ki activity in the homogenous time resolved fluorescence (HTRF) assay for NIK.
T1 construct: Both assays utilize a truncated form of NIK containing only the catalytic domain; made in house; host or cells: baculovirus expression system (insect cells implied)
Assay type: biochemical

T1 sequence (Q99558 400-655 limits assumed): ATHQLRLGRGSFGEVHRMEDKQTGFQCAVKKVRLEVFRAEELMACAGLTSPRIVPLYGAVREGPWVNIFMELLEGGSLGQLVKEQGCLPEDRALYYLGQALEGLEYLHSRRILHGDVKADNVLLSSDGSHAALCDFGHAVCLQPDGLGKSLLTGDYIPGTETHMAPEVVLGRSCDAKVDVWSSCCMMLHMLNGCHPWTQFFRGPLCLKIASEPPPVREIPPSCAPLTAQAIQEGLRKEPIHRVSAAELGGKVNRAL

pKi	Compound
> 6.00	CC1(CCC#N)CN(c2nc(N)ncc2F)c2cc(C#CC3(O)CCCC3)ccc21 (centres unmarked) [Example 67, 3-(1-(2-amino-5-fluoro-4-pyrimidinyl)-6-((1-hydroxycyclopentyl)ethynyl)-3-methyl-2,3-dihydro-1H-indol-3-yl)propanenitrile]
> 6.00	Nc1ncc(F)c(N2CCc3ccc(C#CC4(O)CCCC4)cc32)n1 [Example 68, 1-((1-(2-amino-5-fluoro-4-pyrimidinyl)-2,3-dihydro-1H-indol-6-yl)ethynyl)cyclopentanol]
> 6.00	COCC1(C)CN(c2nc(N)nc3[nH]cnc23)c2cc(C#CC3(O)CCCC3)ccc21 (centres unmarked) [Example 69, 1-((1-(2-amino-9H-purin-6-yl)-3-(methoxymethyl)-3-methyl-2,3-dihydro-1H-indol-6-yl)ethynyl)cyclopentanol]
> 6.00	Nc1nc(N2CCc3ccc(C#CC4(O)CCCC4)cc32)c2nc[nH]c2n1 [Example 72, 1-((1-(2-amino-9H-purin-6-yl)-2,3-dihydro-1H-indol-6-yl)ethynyl)cyclopentanol]
> 6.00	COCCOCC1(C)CN(c2nc(N)nc3[nH]cnc23)c2cc(C#CC3(O)CCCC3)ccc21 (centres unmarked) [Example 73, 1-((1-(2-amino-9H-purin-6-yl)-3-((2-methoxyethoxy)methyl)-3-methyl-2,3-dihydro-1H-indol-6-yl)ethynyl)cyclopentanol]
> 6.00	CC1(CO)CN(c2nc(N)nc3[nH]cnc23)c2cc(C#CC3(O)CCCC3)ccc21 (centres unmarked) [Example 74, 1-((1-(2-amino-9H-purin-6-yl)-3-(hydroxymethyl)-3-methyl-2,3-dihydro-1H-indol-6-yl)ethynyl)cyclopentanol]
> 6.00	CC1(C)CN(c2nc(N)nc3[nH]cnc23)c2cc(C#CC3(O)CCCC3)ccc21 [Example 75, 1-((1-(2-amino-9H-purin-6-yl)-3,3-dimethyl-2,3-dihydro-1H-indol-6-yl)ethynyl)cyclopentanol]
> 6.00	Cc1ccc(S(=O)(=O)n2nccc2C(C)(O)C#Cc2ccc3c(c2)N(c2ccnc(N)n2)CC3)cc1 (centres unmarked) [Example 76, 4-(1-(2-Amino-4-pyrimidinyl)-2,3-dihydro-1H-indol-6-yl)-2-(1-((4-methylphenyl)sulfonyl)-1H-pyrazol-5-yl)-3-butyn-2-ol]
> 6.00	CC(O)(C#Cc1ccc2c(c1)N(c1ccnc(N)n1)CC2)c1ccn[nH]1 (centres unmarked) [Example 77, 4-(1-(2-Amino-4-pyrimidinyl)-2,3-dihydro-1H-indol-6-yl)-2-(1H-pyrazol-5-yl)-3-butyn-2-ol]
> 6.00	CC(O)(C#Cc1ccc2c(c1)N(c1nc(N)ncc1Cl)CC2)c1ccn[nH]1 (centres unmarked) [Example 78, 4-(1-(2-Amino-5-chloro-4-pyrimidinyl)-2,3-dihydro-1H-indol-6-yl)-2-(1H-pyrazol-5-yl)-3-butyn-2-ol]
> 6.00	Cc1c[nH]c(C(C)(O)C#Cc2ccc3c(c2)N(c2nc(N)ncc2Cl)CC3(C)C)n1 (centres unmarked) [Example 79, 4-(1-(2-Amino-5-chloro-4-pyrimidinyl)-3,3-dimethyl-2,3-dihydro-1H-indol-6-yl)-2-(4-methyl-1H-imidazol-2-yl)-3-butyn-2-ol]
> 6.00	CC(O)(C#Cc1ccc2c(c1)N(c1nc(N)ncc1Cl)CC2(C)C)c1ccn[nH]1 (centres unmarked) [Example 80, 4-(1-(2-amino-5-chloropyrimidin-4-yl)-3,3-dimethylindolin-6-yl)-2-(1H-pyrazol-5-yl)but-3-yn-2-ol and 4-(1-(2-amino-5-chloropyrimidin-4-yl)-3,3-dimethylindolin-6-yl)-2-(1H-pyrazol-3-yl)but-3-yn-2-ol]
4.52 to 6.00	C[C@](O)(C#Cc1ccc2c(c1)N(c1nc(N)ncc1Cl)CC21COC1)c1nccs1 [Example 81]
> 6.00	CC(O)(C#Cc1ccc2[nH]nc(-c3ccns3)c2c1)c1nccs1 (centres unmarked) [Example 83, 4-(3-(isothiazol-5-yl)-1H-indazol-5-yl)-2-(thiazol-2-yl)but-3-yn-2-ol]
> 6.00	COCCNC(=O)c1[nH]c2ccc(C#CC(C)(O)c3nccs3)cc2c1-c1ccncn1 (centres unmarked) [Example 89, 5-(3-hydroxy-3-(thiazol-2-yl)but-1-ynyl)-N-(2-methoxyethyl)-3-(pyrimidin-4-yl)-1H-indole-2-carboxamide]
> 6.00	COCCNC(=O)c1c(-c2ccncn2)c2cc(C#CC(C)(O)c3nccs3)ccc2n1C (centres unmarked) [Example 90, 5-(3-hydroxy-3-(thiazol-2-yl)but-1-ynyl)-N-(2-methoxyethyl)-1-methyl-3-(pyrimidin-4-yl)-1H-indole-2-carboxamide]
> 6.00	C[C@@](O)(C#Cc1ccc2[nH]c(C(=O)N3CCOCC3)c(-c3ccncn3)c2c1)c1nccs1 [Example 91, (5-((R)-3-hydroxy-3-(thiazol-2-yl)but-1-ynyl)-3-(pyrimidin-4-yl)-1H-indol-2-yl)(morpholino)methanone]
> 6.00	CC(C)(C)NC(=O)c1ccc(-c2[nH]c3ccc(C#CC4(O)CCCC4)cc3c2-c2ccnc(N)n2)cc1 [Example 93, 4-(3-(2-aminopyrimidin-4-yl)-5-(2-(1-hydroxycyclopentyl)ethynyl)-1H-indol-2-yl)-N-tert-butylbenzamide]
> 6.00	N#Cc1ccc(-c2[nH]c3ccc(C#CC4(O)CCCC4)cc3c2-c2ccnc(N)n2)cc1 [Example 94, 4-(3-(2-aminopyrimidin-4-yl)-5-(2-(1-hydroxycyclopentyl)ethynyl)-1H-indol-2-yl)benzonitrile]

pKi	Compound
> 6.00	Nc1ncc(F)c(-c2c[nH]c3ccc(C#CC4(O)CCCC4)cc23)n1 [Example 95, 1-(2-(3-(2-amino-5-fluoropyrimidin-4-yl)-1H-indol-5-yl)ethynyl)cyclopentanol]
> 6.00	COCCNC(=O)c1[nH]c2ccc(C#CC3(O)CCCC3)cc2c1-c1ccnc(N)n1 [Example 96, 3-(2-aminopyrimidin-4-yl)-5-(2-(1-hydroxycyclopentyl)ethynyl)-N-(2-methoxyethyl)-1H-indole-2-carboxamide]
> 6.00	OC1(C#Cc2ccc3[nH]nc(-c4ccns4)c3c2)CCCC1 [Example 97, 1-(2-(3-(isothiazol-5-yl)-1H-indazol-5-yl)ethynyl)cyclopentanol]
> 6.00	COc1cc(C#CC2(O)CCCC2)cc2c1ccn2-c1ccnc(N)n1 [Example 98, 1-(2-(1-(2-aminopyrimidin-4-yl)-4-methoxy-1H-indol-6-yl)ethynyl)cyclopentanol]
> 6.00	Nc1nccc(-n2ccc3c(O)cc(C#CC4(O)CCCC4)cc32)n1 [Example 99, 1-(2-aminopyrimidin-4-yl)-6-(2-(1-hydroxycyclopentyl)ethynyl)-1H-indol-4-ol]
> 6.00	COCCOc1cc(C#CC2(O)CCCC2)cc2c1ccn2-c1ccnc(N)n1 [Example 100, 1-(2-(1-(2-aminopyrimidin-4-yl)-4-(2-methoxyethoxy)-1H-indol-6-yl)ethynyl)cyclopentanol]
> 6.00	CC(=O)Nc1cc(C#CC2(O)CCCC2)cc2c1ccn2-c1ccnc(N)n1 [Example 101, N-(1-(2-aminopyrimidin-4-yl)-6-(2-(1-hydroxycyclopentyl)ethynyl)-1H-indol-4-yl)acetamide]
> 6.00	COc1cc(C#CC2(O)CCCC2)cc2c1ccn2-c1nc(N)ncc1F [Example 102, 1-((1-(2-amino-5-fluoropyrimidin-4-yl)-4-methoxy-1H-indol-6-yl)ethynyl)cyclopentanol]
> 6.00	COc1cc(C#CC2(O)CCCC2)cc2c1c(CO)cn2-c1nc(N)ncc1F [Example 103, 1-(2-(1-(2-amino-5-fluoropyrimidin-4-yl)-3-(hydroxymethyl)-4-methoxy-1H-indol-6-yl)ethynyl)cyclopentanol]
> 6.00	Cc1cc(C(C)(O)C#Cc2ccc3[nH]c(C)c(-c4ccncc4)c3c2)no1 (centres unmarked) [Example 104, 4-(2-methyl-3-(pyridin-4-yl)-1H-indol-5-yl)-2-(5-methylisoxazol-3-yl)but-3-yn-2-ol]
> 6.00	COCCN(C)C1CCn2c1c(-c1ccncn1)c1cc(C#CC(C)(O)c3nccs3)ccc12 (centres unmarked) [Example 105, 4-(1-((2-methoxyethyl)(methyl)amino)-9-(pyrimidin-4-yl)-2,3-dihydro-1H-pyrrolo[1,2-a]indol-7-yl)-2-(thiazol-2-yl)but-3-yn-2-ol]
> 6.00	CC(O)(C#Cc1ccc2[nH]cc(-c3cnco3)c2c1)c1nccs1 (centres unmarked) [Example 106, 4-(3-(oxazol-5-yl)-1H-indol-5-yl)-2-(thiazol-2-yl)but-3-yn-2-ol]
> 6.00	Nc1ncc(Cl)c(-c2c[nH]c3ccc(C#CC4(O)CCCC4)cc23)n1 [Example 107, 1-(2-(3-(2-amino-5-chloropyrimidin-4-yl)-1H-indol-5-yl)ethynyl)cyclopentanol]
> 6.00	N#Cc1cnc(N)nc1-c1c[nH]c2ccc(C#CC3(O)CCCC3)cc12 [Example 108, 2-amino-4-(5-(2-(1-hydroxycyclopentyl)ethynyl)-1H-indol-3-yl)pyrimidine-5-carbonitrile]
> 6.00	Nc1ncc(Cl)c(-c2c[nH]c3ccc(C#CC4(O)CCCCC4)cc23)n1 [Example 109, 1-(2-(3-(2-amino-5-chloropyrimidin-4-yl)-1H-indol-5-yl)ethynyl)cyclohexanol]
> 6.00	CNc1nccc(-c2c[nH]c3ccc(C#CC4(O)CCCC4)cc23)n1 [Example 111, 1-(2-(3-(2-(methylamino)pyrimidin-4-yl)-1H-indol-5-yl)ethynyl)cyclopentanol]
> 6.00	CNc1ncc(Cl)c(-c2c[nH]c3ccc(C#CC4(O)CCCC4)cc23)n1 [Example 112, 1-(2-(3-(5-chloro-2-(methylamino)pyrimidin-4-yl)-1H-indol-5-yl)ethynyl)cyclopentanol]
> 6.00	Nc1ncc(Cl)c(-c2cn(CC3CCCN3)c3ccc(C#CC4(O)CCCC4)cc23)n1 (centres unmarked) [Example 113, 1-(2-(3-(2-amino-5-chloropyrimidin-4-yl)-1-(pyrrolidin-2-ylmethyl)-1H-indol-5-yl)ethynyl)cyclopentanol]
> 6.00	Nc1ncc(Cl)c(-c2cn(C3CCNC3)c3ccc(C#CC4(O)CCCC4)cc23)n1 (centres unmarked) [Example 114, 1-(2-(3-(2-amino-5-chloropyrimidin-4-yl)-1-(pyrrolidin-3-yl)-1H-indol-5-yl)ethynyl)cyclopentanol]
